Measurements published in patent US9919058B2, “Polyketal particles including a CpG oligodeoxynucleotide for the treatment of lung cancer” (THE UNITED STATES OF AMERICA, as represented by the …, priority 2014, dated 2018).
Like-named read-outs stand apart in the source and are kept apart here.

Legend:
[1] = test system: Lewis lung carcinoma (LLC1) cells
Protocol: Treatment Protocols and Tumor Cell Implantation: C57BL/6, TLR9 KO and Rag1 KO mice were obtained from the National Cancer Institute (Frederick, Md.) and studied at 5-6 wk of age. […] On the day of inoculation, cultured cells were trypsinized, washed and suspended in 0.9% saline.
One week later, free ODN or ODN-NP were administered either systemically (i.p.) or locally (i.t.). Instillation was achieved via orotracheal intubation using a 20 gauge 1″ catheter (TERUMO, Somerset, N.J.) under anesthesia. Survival curves were generated from 4-6 mice per group and all results derived by combining data from 2-4 independent experiments. All animals were monitored 3×/wk and moribund mice euthanized as per Institutional Animal Care and Use Committee protocol.
Statistical Analysis: Statistical analyses were performed using MedCalc, version 13.0 (MedCalc Software, Mariakerke, Belgium). Differences in survival were determined using the log rank test of Kaplan-Meier. Differences between groups were assessed using a one-way ANOVA followed by Student-Newman-Keuls post-hoc test. […] All values are expressed as mean±SE.

[2] = test system: Spleen cells from WT or TLR9 KO mice; experiment: In vitro stimulation of spleen cells (CCK-8 proliferation; IL-6/IL-12 ELISA); type: cell-based
Protocol: FIGS. 2A-2C. In vitro activity of CpG-NP (aggregates provided microprticles “MP’). Spleen cells from WT or TLR9 KO mice were cultured with 1 μM of free or NP adsorbed CpG ODN or 1 μg/mL of R837 (TLR7 ligand). 2A) Cell proliferation after 72 hr. 2B, 2C) IL-12 and IL-6 production after 24 hr.
In Vitro Cell Proliferation Assay: Single spleen cell suspensions were prepared. 5×10^4 cells/well were cultured in 96-well flat bottomed microtiter plates in complete RPMI 1640 medium supplemented with 10% fetal calf serum, 100 U/mL penicillin, […], […], 1.0 mmol/L sodium pyruvate, NEAA, and 0.0035% 2-ME. The cells were stimulated free ODN, ODN-NP, or R837 (TLR7 agonist) for 72 hr. Cell proliferation was assessed using the CCK-8 assay as per manufacturer's recommendation (Dojindo molecular technologies, Inc. Rockville, Md.).
ELISA: Cytokine levels in BAL, serum, and culture supernatants were measured by ELISA as previously described (Klinman et al., PNAS 1996; 93:2879-2883). Briefly, paired IL-6 and IL-12-specific mAbs were purchased from BD Pharmingen. Ninety-six-well Immulon H2B plates (Thermo LabSystems, Beverly, Mass.) were coated with capture cytokine-specific Abs and then blocked with PBS/1% BSA. Samples were added and bound cytokine detected by the addition of biotin-labeled secondary Ab, followed by phosphatase-conjugated avidin and a phosphatase-specific colorimetric substrate. Standard curves were generated using recombinant cytokines purchased from R&D Systems (Minneapolis, Minn.).

[3] = test system: Immune Cells; experiment: BAL cellularity and IL-12 after i.t. delivery to normal mice; type: in vivo; conditions: 50 μg i.t., BAL 2 days later
Protocol: FIGS. 4A-4B. Activity of CpG-NP (aggregates provided microprticles “MP’) in vivo. 50 μg of CpG ODN (free or adsorbed onto NP) was administered i.t. to normal mice. BAL was collected and analyzed for (4A) cellularity and (4B) IL-12 levels 2 days later.
Tissue Collection and Evaluation of Tumor Development: Bronchoalveolar lavage (BAL) fluid was obtained by tracheal cannulation of anesthetized mice. Cell differentials were performed on cytocentrifuged BAL preparations after fixation and staining with Diff-Quick (Dade Behring, Newark, Del.).
IL-12 levels in BAL and serum were determined by ELISA. Lungs were inflated and fixed by instilling 1 mL of 10% neutral-buffered formalin or periodate lysine paraformaldehyde (PLP) fixative (Wako Chemicals USA, Inc. Richmond, Va.) at 20 cm H2O. Fixed tissue was embedded in paraffin, sectioned, and stained with hematoxylin and eosin for histopathological assessment. Tumor area was evaluated in mid-line sections and quantified using Image J software ver.1.48 (National Institute of Health, Bethesda, Md.).
ELISA: Cytokine levels in BAL, serum, and culture supernatants were measured by ELISA as previously described (Klinman et al., PNAS 1996; 93:2879-2883). […] Samples were added and bound cytokine detected by the addition of biotin-labeled secondary Ab, followed by phosphatase-conjugated avidin and a phosphatase-specific colorimetric substrate. […]

[4] = mouse, in vivo
Protocol: Biodistribution of CpG ODN. LLC were implanted as described in FIG. 1. […] Tissue samples were stained to identify macrophages (red F4/80^+), DC (red CD205^+) or CpG (green) and analyzed by confocal microscopy.
Immunohistochemistry and Immunofluorescent Analysis: Tissue sections were deparaffinized with xylene and rehydrated with graded ethanol. Endogenous peroxidase activity was blocked by incubation with 0.3% H2O2 in methanol for 30 min followed by Protein Block (Dako, Carpinteria, Calif.). […] Isotype matched negative controls were included to insure specificity.
For immunohistochemistry, stained sections were incubated with HRP-conjugated anti-rat or rabbit IgG (simple stain mouse Max Po; Nichirei, Tokyo, Japan) plus 3-amino-9-ethyl carbazole (AEC) substrate for color development (Nichirei). The sections were counterstained with Mayer's hematoxylin (Dako) and images were obtained using an IX50 inverted microscope equipped with digital imaging system (Olympus, Center Valley, Pa.). […] Cell nuclei were visualized with DAPI (Vector). […] Fluorescent images were acquired with a laser-scanning confocal microscope (LSM 510; Zeiss, Thronwood, N.Y.), equipped with a 63x/1.4NA oil objective.

[5] = test system: advanced NSCLC; conditions: cited from earlier work
[6] = test system: Lewis lung cancer; conditions: CpG ODN in combination with chemotherapy; cited from earlier work
[7] = in vivo; cited from earlier work
[8] = test system: Rat; conditions: in vivo, po; cited from earlier work
[9] = test system: large established tumor; conditions: 3M-052 co-delivered with CpG ODN into the tumor site; tumor size over 500 mm(3); cited from earlier work

## GCTAGACGTTAGCGT [CpG ODN]
[1]; 50 μg i.t. weekly for one month from day 7, C57BL/6, untreated 22 days
  median survival time: 38 days
[1]; dose of ODN 10 μg
  HR (survival vs No Rx): 0.33
[1]; dose of ODN 10 μg weekly for one month
  long term survival: < 40%
[1]; dose of ODN 50 μg weekly for one month
  long term survival: > 80%
[1]; dose of ODN 100 μg
  toxicity: evidence of toxicity (pulmonary inflammation and weight loss)
[1]; intra-tracheal (i.t.) delivery, 50 μg
  HR (survival vs No Rx): 0.28
[1]; survivors of therapy re-challenged
  tumors on re-challenge of survivors with LLC: no tumors arose
[1]; systemic (i.p.) delivery
  HR (survival vs No Rx): 0.55
  effect on survival: modest but statistically insignificant survival benefit
[2]; TLR9 KO spleen cells
  response of cells from TLR9 KO mice: failed to respond
[2]; WT spleen cells, 1 μM, 24 hr
  IL-6 and IL-12 secretion: induced WT cells to secrete IL-6 and IL-12
[2]; WT spleen cells, 1 μM, 3 days (72 hr)
  cell proliferation: proliferate over 3 days
[2]; WT spleen cells, 24 hr vs 3 days of culture
  relative effectiveness of free CpG vs CpG-NP: more effective at the earlier time point
[3]
  pulmonary IL-12 levels: significant increase in pulmonary IL-12 levels
[3]; normal mice
  rise in BAL cellularity vs saline: ≈ 25%
[4]
  clearance from the lungs: rapidly cleared from the lungs
  localisation in lung: detected throughout the mucosal surface of the bronchial tree
  localisation/persistence in lung and tumor: little of this material remained in the bronchi or could be detected in the tumor
[5]; patients who received CpG ODN, chemotherapy alone 19-23%
  objective response rate: 28-30%
[5]; patients with NSCLC, phase 3
  survival benefit in phase 3 trials: no survival benefit was observed
[6]
  effect on survival: significantly prolonged survival
[7]
  mean t1/2: ≈ 12 h
  median tmax: 2 h

## GCTAGAGCTTAGCGT [control ODN, reference compound]
[1]; i.t. delivery
  effect on survival: no effect

## OCC1CCC(CO)CC1 (centres unmarked) [1,4-cyclohexanedimethanol]
[8]
  LD50: 3,200 mg/kg

## CCCCCCCCCCCCCCCCCC(=O)NCCCCOn1c(CCCC)nc2c(N)nc3ccccc3c21 [3M-052, N-(4-{[4-amino-2-butyl-1H-imidazo[4,5-c]quinolin-1-yl]oxy}butyl) octadecanamide]
[9]
  effect on established tumor: eliminated the large established tumor
